US11286238B2, “Melatonin derivatives, method thereof, and use thereof” (Xiamen Nuokangde Biological Technology Co., Ltd., priority 2020, dated 2022)

Columns and labels:
[1] = Solubility determination in water; assay type: physicochemical
Description: In order to evaluate solubility of a new melatonin derivative of Embodiment 1, solubility of Mel and Mels were tested. […] Therefore, the solubility of Mels is nearly 700 times (695 times) the solubility of Mel (FIG. 4). Good water solubility of Mels can greatly improve application and greatly contribute to the research of this molecule in the field of medicine and biology.

B16F10 cell lines = experiment: Cytotoxicity assay (CCK-8); assay type: cell-based; conditions: for Effect on cell proliferation at a low concentration / Effect on cell proliferation rate at higher concentrations: B16F10, 24 hours; for Effect on cell proliferation at a low concentration: CCK-8, absorbance 450 nm; for Effect on cell proliferation rate at higher concentrations: CCK-8, 5 mM and 10 mM
Description: B16F10 cell lines were incubated into a plate with 96 wells. After cell adherence, a Mel solution with different concentrations or a Mels solution with different concentrations was respectively added to one of the 96 wells in turn. Final concentrations of the Mel solution or the Mels solution were respectively 10 μM (10 μmol/L), 100 μM (100 μmol/L), 1 mM (1 mmol/L), 5 mM (5 mmol/L), and 10 mM (10 mmol/L). After incubating for 24 hours, CCK-8 (Cell Counting Kit-8) was added into each one of the 96 wells. Absorbance of the Mel solution and the Mels solution was measured at 450 nm.

C57/B6 mice = experiment: Safety verification in vivo (body weight and diet changes); set-up: species or system mouse; conditions: intraperitoneal
Description: To test a safety of Mels of Embodiment 1 in vivo, Mel, Mels, or saline was intraperitoneally injected into mice. Using C57/B6 mice (about 18 g), the mice were randomly divided into three groups: a control group, a Mel group, and a Mels group. Then, 200 μL of normal saline, Mel and Mels solution (dissolving Mel and Mels in saline containing 5% DMSO, 10 mmol/L) were respectively intraperitoneally injected into the mice. The injection process was repeated three times at days 2, 6, and 10, and body weight changes and diet changes of mice were recorded. […] In short, Mels has lower toxicity and good safety in vitro and in vivo.

mice = experiment: Sleep experiment in sodium pentobarbital mouse sleep models; assay type: in vivo
Description: Mouse sleep models were established by injecting 300 μL 1% sodium pentobarbital solution into mice, and then dividing the mice into three groups. Each group comprised five mice. A first group of the three groups were injected with 100 μL normal saline as a control group, a second group of the three groups were injected with 100 μL natural unmodified melatonin (Mel) solution, a concentration of Mel was 86 μM (86 μmol/L) or 860 nM (860 nmol/L), and a third group of the three groups was injected with modified melatonin (Mels) solution with the same concentration and volume as that of the second group. A sleep duration began to be recorded one minute after a loss of righting reflex, and recording ended when the righting reflex returned.

[2] = as disclosed in SCCS Opinion on MLT, 23 Mar. 2010; cited from earlier work

Row | SMILES | solubility ([1]; in 100 mL water) [mg/mL] | Solubility of Mels relative to solubility of Mel ([1]; water solubility ratio versus melatonin) [times] | Effect on cell proliferation at a low concentration (B16F10 cell lines) | Effect on cell proliferation rate at higher concentrations (B16F10 cell lines) | Cytotoxicity on cells compared with Mel (B16F10 cell lines; B16F10, at an even higher concentration) | Effect on body weights and diets of the mice (C57/B6 mice; 200 μL of 10 mmol/L in saline with 5% DMSO, days 2, 6 and 10, versus control group and Mel group) | Safety in vivo (C57/B6 mice; C57/B6 mice, 10 mmol/L, 200 μL, three injections) | Sleep time of mice (mice; mice given 300 μL 1% sodium pentobarbital, 100 μL of 86 μM or 860 nM solution injected, prolonged from 1 hour) [h] | Effect on sleep compared with Mel (mice; same concentration and volume as Mel (86 μM or 860 nM, 100 μL)) | Solubility in 100 mL water [2] [g]
1 | COc1ccc2c(c1)c(CCNC(C)=O)cn2CCCCS(=O)(=O)[O-].[Na+] [Mels, 4-(3-(2-acetamidoethyl)-5-methoxy-1H-indol-1-yl) butane-1-sulfonate] | 1600 | 695 | no effects on cell proliferation | little affected on cell proliferation rate | much smaller than that of Mel | no significant effect | good safety in vivo | 3 | same effect as Mel | –
2 | COc1ccc2[nH]cc(CCNC(C)=O)c2c1 [Mel, melatonin] | – | – | no effects on cell proliferation | affected cell proliferation rate | – | – | – | – | – | 0.2
